Data on 21 compounds can be found in PubChem BioAssay (NCI).

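96-well plates; 48 h exposure; 5 concentrations. Endpoints by linear interpolation between flanking doses. Not reached: highest tested concentration assigned. Abbreviation: GI50, concentration required for 50% inhibition of growth. TGI denotes the concentration required for complete inhibition of growth.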

Test systems include DU-145 prostate; T-47D breast; NCI/ADR-RES ovarian; DMS 114 small cell lung; LXFL 529 NSCLC; DLD-1 colon; MDA-N.
What all share (experiment): growth of human tumour cells (NCI), 48 h

On to `OCCN1CCCN(CCCN2c3ccccc3Sc3ccc(C(F)(F)F)cc32)CC1`, for which the GI50 with DU-145 prostate is 5.61 µM; in the assay with T-47D breast, 2.21 µM; in the assay on NCI/ADR-RES ovarian, 3.57 µM. The TGI turned out to be 17.8 µM in the assay with DU-145 prostate, 5.39 µM in the assay on T-47D breast and 14.7 µM in the assay with NCI/ADR-RES ovarian.

Regarding `COc1cc2c(c(OC)c1OC)-c1ccc(SC)c(=O)cc1C(CC(=O)Oc1ccccc1F)C2` (stereo not drawn), the values for the TGI in the assay with DMS 114 small cell lung, in the assay on LXFL 529 NSCLC and in the assay on DLD-1 colon were 0.0438 µM, greater than 7.5 µM and greater than 7.5 µM, respectively.

On to `O=c1ccc(=O)c2c1c1[nH]c3ccccc3c1c1c(=O)c3ccccc3c(=O)c21`, for which the TGI in the assay on DU-145 prostate, in the assay with T-47D breast and with NCI/ADR-RES ovarian was greater than 10 µM each time.

`COc1ccc(C2=NOC3=c4ccccc4=CSC3=C2c2ccccc2)cc1`: the GI50 in the assay with DU-145 prostate was 19.8 µM; in the assay with T-47D breast, 30.3 µM; in the assay on NCI/ADR-RES ovarian, 41.7 µM. Further, the TGI with DU-145 prostate was greater than 100 µM; in the assay on T-47D breast, 73.9 µM; in the assay with NCI/ADR-RES ovarian it was greater than 100 µM.

With `Clc1cc(Cl)cc(Nc2ccc3c(OCCCN4CCOCC4)cccc3n2)c1`, the GI50 in the assay with DU-145 prostate is 3.08 µM; in the assay on T-47D breast, 4.91 µM; in the assay with NCI/ADR-RES ovarian, 2.88 µM. Moreover, the TGI in the assay on DU-145 prostate amounted to 9.67 µM; in the assay on T-47D breast, 18.2 µM; in the assay on NCI/ADR-RES ovarian, 9.29 µM.

On to `O=[N+]([O-])/C(=C/C=C/c1ccccc1)c1ccccc1`, for which the GI50 is 1.76 µM in the assay on DU-145 prostate, 2.07 µM in the assay on T-47D breast and 3.56 µM with NCI/ADR-RES ovarian. Further, the values for the TGI with DU-145 prostate, with T-47D breast and in the assay on NCI/ADR-RES ovarian were 3.22 µM, 5.28 µM and 11.9 µM, respectively.

On to `Cc1ncc([N+](=O)[O-])n1CCOc1ccc(C(=O)/C=C/c2ccc(C(F)(F)F)cc2)cc1`, for which the figures for the GI50 in the assay with DU-145 prostate and in the assay with NCI/ADR-RES ovarian were 3.56 µM and 2.76 µM, respectively. Also, the figures for the TGI in the assay on DU-145 prostate and with NCI/ADR-RES ovarian were 11.9 µM and 9.29 µM, respectively.

`O=C(NCCNC1=CC(=O)c2nc3ccccc3c3ccnc1c23)c1cnccn1`: the GI50 in the assay with DU-145 prostate is 43.8 µM; with T-47D breast, 44.7 µM; in the assay on NCI/ADR-RES ovarian, 96.6 µM. The TGI with DU-145 prostate, in the assay on T-47D breast and in the assay on NCI/ADR-RES ovarian was greater than 100 µM in each case.

Regarding `C=C(c1ccc(C(=O)NCCCn2ccnc2)cc1)c1cc2c(cc1C)C(C)(C)CCC2(C)C`, the GI50 with DU-145 prostate was 0.744 µM; in the assay on T-47D breast it was 0.281 µM; in the assay on NCI/ADR-RES ovarian it was 0.0807 µM. The TGI in the assay on DU-145 prostate is greater than 62.5 µM; with T-47D breast, 6.76 µM; in the assay with NCI/ADR-RES ovarian it was greater than 36.1 µM.

With `CSc1ccc2c(c1)N(CCCN(C)C)c1ccccc1S2`, the TGI in the assay on MDA-N amounted to 23.9 µM; in the assay on DU-145 prostate, 30.1 µM; in the assay with T-47D breast, 25.9 µM; with NCI/ADR-RES ovarian, 26.2 µM.

Take `Fc1nc(Sc2ncnc3nc[nH]c23)nc(-c2c3ccccc3c3sc4ccccc4n23)n1`: the TGI in the assay on MDA-N, in the assay on DU-145 prostate, with T-47D breast and in the assay on NCI/ADR-RES ovarian was greater than 100 µM throughout.

On to `O=C([CH-]C(=O)c1ccccc1)c1ccccc1.[CH2-]C.[CH2-]C.[Tl+3]`, for which the GI50 was 15.3 µM in the assay on DU-145 prostate, 17 µM in the assay with T-47D breast and 26.1 µM with NCI/ADR-RES ovarian. Further, the figures for the TGI in the assay on DU-145 prostate, with T-47D breast and in the assay with NCI/ADR-RES ovarian were 59.3 µM, greater than 100 µM and greater than 100 µM, respectively.

In the case of `COc1cc(COC(=O)N(C)[C@@H](Cc2ccccc2)C(=O)O)c([N+](=O)[O-])cc1OC`, the TGI with MDA-N, in the assay on DU-145 prostate, in the assay on T-47D breast and in the assay on NCI/ADR-RES ovarian was greater than 100 µM each time.

Turning to `C#CCN(CCCOc1ccc(Cl)cc1Cl)CCCSC(=O)CCCCCN1/C(=C\C=C2/CCCC(/C=C/C3=[N+](CCCCCC(=O)[O-])c4ccccc4C3(C)C)=C2Cl)C(C)(C)c2ccccc21`, the results for the GI50 in the assay on DU-145 prostate, with T-47D breast and in the assay on NCI/ADR-RES ovarian were 3.02 µM, 0.768 µM and 20.2 µM, respectively. Moreover, the figures for the TGI in the assay with DU-145 prostate, with T-47D breast and in the assay with NCI/ADR-RES ovarian were 10.9 µM, 3.21 µM and 62.3 µM, respectively.

Turning to `CC[C@]1(O)C[C@@H]2CN(CCc3c([nH]c4ccccc34)[C@@](C(=O)OC)(c3cc4c(cc3OC)N(C)[C@H]3[C@@](O)(C(=O)OC)[C@H](OC(=O)CCCBr)[C@]5(CC)C=CCN6CC[C@]43[C@@H]65)C2)C1`, the GI50 is less than 0.01 µM with DU-145 prostate and 0.986 µM in the assay on NCI/ADR-RES ovarian. Besides, the TGI in the assay on DU-145 prostate is 1.43 µM; in the assay on NCI/ADR-RES ovarian, greater than 100 µM.

For the compound `c1ccc2[nH]c(-c3cscn3)nc2c1`, the TGI in the assay on MDA-N, in the assay with DU-145 prostate, in the assay on T-47D breast and in the assay with NCI/ADR-RES ovarian was greater than 100 µM throughout.

`O=C(/C=C/c1ccccn1)c1ccccc1`: the GI50 in the assay with DU-145 prostate is 13.1 µM; in the assay with T-47D breast, 4.87 µM; in the assay with NCI/ADR-RES ovarian, 3.01 µM. Besides, the values for the TGI with DU-145 prostate, in the assay on T-47D breast and in the assay with NCI/ADR-RES ovarian were 25.7 µM, 24.4 µM and 12.1 µM, respectively.

`COc1cc(/C=C/C(=O)/C=C/c2ccc(-n3ccnc3)cc2)ccc1O`: the GI50 with DU-145 prostate is 3.36 µM; in the assay on T-47D breast, 2.98 µM; in the assay with NCI/ADR-RES ovarian, 15.9 µM. Further, the TGI in the assay on DU-145 prostate was 10.1 µM; in the assay on T-47D breast it was 9.92 µM; with NCI/ADR-RES ovarian, greater than 100 µM.

Consider `O=[N+]([O-])/C=C/c1cn(CCCCCCCCn2cc(/C=C/[N+](=O)[O-])c3ccccc32)c2ccccc12`, for which the TGI in the assay on MDA-N, in the assay with DU-145 prostate, in the assay on T-47D breast and with NCI/ADR-RES ovarian was greater than 10 µM each time.

As for `NCC[PH+](c1ccccc1)c1ccccc1.NCC[PH+](c1ccccc1)c1ccccc1.[Cl-].[Pt+4]`, the GI50 in the assay with MDA-N, in the assay on DU-145 prostate, with T-47D breast and in the assay on NCI/ADR-RES ovarian was greater than 100 µM each time. For the same compound, the TGI in the assay with MDA-N, in the assay on DU-145 prostate, with T-47D breast and in the assay on NCI/ADR-RES ovarian was greater than 100 µM throughout.

Take `CNc1ccc(CSc2ccc(C)cc2)cc1`: the GI50 in the assay with DU-145 prostate is 31 µM; in the assay on T-47D breast, 13.5 µM; in the assay with NCI/ADR-RES ovarian, 21.4 µM. Also, the TGI with DU-145 prostate, in the assay with T-47D breast and with NCI/ADR-RES ovarian was greater than 100 µM in each case.
